Source: US8138361B2, “C-10 carbamates of taxanes” (The Trustees Of The University Of Pennsylvania, priority 2005, dated 2012)
Where two headings read alike, the source gives them in different places.

Key:
[1] = system: tumor cell lines; experiment: Cytotoxicity assay (AlamarBlue, monolayer); format: cell-based
Method: Monolayer assays with tumor cell lines (MCF-7 breast carcinoma and HT-29 colorectal carcinoma from ATCC) were carried out in triplicate in 96-well plates with PMI1640 medium containing 5% fetal bovine serum, 100 U/ml penicillin and 100 μg/ml streptomycin. […] Exponentially growing cells (5,000 MCF-7 or HT-29; 1,500 HFF) were plated in 100 μl medium and incubated overnight (5% CO2, 37° C.). Compounds (20 pM to 20 μM final concentration, 6-8 doses) and vehicle (DMSO) controls were added and the incubation was continued for an additional 72 hours. […] EC50 values were generated from dose-response curves by a 4-parameter method using Softmax PRO software, Mean FC50s (±SD) represent the average of all tests carried out for all lots of a given compound.
1. Cells: • a. Breast tumor cell lines, MCF-7 and NCI/ADR-RES • b. Colon tumor cell lines: HCT-15 and HT-29 • c. Leukemia cell line K562 and K562/R • d. Non-small cell lung cancer cell line A549 • e. Human foreskin fibroblast cells (HFF) • f. Human umbilical vein endothelial cells (HUVEC)
2. Cell Culture: • a. All tumor cells were grown in RPMI1640 medium supplemented with 5% (v/v) fetal bovine serum and the antibiotics in a final concentration of 100 U/ml of penicillin and 100 μg/ml of streptomycin in an atmosphere of 5% CO2. • b. HFF and HUVEC were grown in the medium of FGM-2 and EGM-2 from Cambrex,
3. Cytotoxicity Assay: • a. Day 1: Cells growing exponentially were transferred to 96-well tissue culture plates. All cell types were plated at a density of 1,500-5,000 cells per well in 100 μl complete medium. • b. Day 2: 100 μl of experimental compounds in complete medium was added in triplicate wells, • c. Day 5; Cell growth inhibition was assayed using the AlamarBlue (BioSource, Camarillo, Calif.) signal reduction assay. Correlation between AlamarBlue and cell proliferation has been established in the literature. Compound concentration versus relative fluorescence units was plotted.
Detailed procedures for conducting the assays are provided herein and are known in the art.

[2] = system: tubulin; experiment: Tubulin polymerization assay (ability to promote polymerization of tubulin); format: biochemical
From the text: The kit is based upon an increase in quantum yield of florescence upon binding of a fluorophore to microtubules. […] Tubulin assembly may also be monitored by light scattering which is approximated by the apparent absorption at 350 nm. In the assay, BSA is employed to prevent aggregation and glycerol, which is a tubulin polymerization enhancer, is omitted from the kit to increase the signal to noise ratio. […]

[3] = target: T1, Pgp (Bos taurus, UniProt A0A3Q1MB23); experiment: Rhodamine 123 uptake assay in Bovine Brain Endothelial Cells (BBEC); format: cell-based; details: 25 micromolar; for Rhodamine 123 uptake: 45 min incubation, fluorescence normalized to protein content, average
T1 construct: Bovine Brain Endothelial Cells (BBEC) express Pgp; endogenous in cells; host or cells: Bovine Brain Endothelial Cells (BBEC)
Method: Bovine Brain Endothelial Cells (BBEC) express Pgp and are commonly used as model for Blood Brain Barrier (BBB).
All compounds and controls were run in triplicates.
The experiment was run in two 24-wells plates. […] After addition of the test compounds, cells were incubated for 45 min. After this time the drug solutions were removed by aspiration. The monolayers were then rinsed three times with ice-cold PBSG and finally solubilized with 1 mL of lysing solution for 30 min.

[4] = average EC50, cell line not given, 72 hours incubation
[5] = average %, relative to paclitaxel

T1 sequence (A0A3Q1MB23 1-1267): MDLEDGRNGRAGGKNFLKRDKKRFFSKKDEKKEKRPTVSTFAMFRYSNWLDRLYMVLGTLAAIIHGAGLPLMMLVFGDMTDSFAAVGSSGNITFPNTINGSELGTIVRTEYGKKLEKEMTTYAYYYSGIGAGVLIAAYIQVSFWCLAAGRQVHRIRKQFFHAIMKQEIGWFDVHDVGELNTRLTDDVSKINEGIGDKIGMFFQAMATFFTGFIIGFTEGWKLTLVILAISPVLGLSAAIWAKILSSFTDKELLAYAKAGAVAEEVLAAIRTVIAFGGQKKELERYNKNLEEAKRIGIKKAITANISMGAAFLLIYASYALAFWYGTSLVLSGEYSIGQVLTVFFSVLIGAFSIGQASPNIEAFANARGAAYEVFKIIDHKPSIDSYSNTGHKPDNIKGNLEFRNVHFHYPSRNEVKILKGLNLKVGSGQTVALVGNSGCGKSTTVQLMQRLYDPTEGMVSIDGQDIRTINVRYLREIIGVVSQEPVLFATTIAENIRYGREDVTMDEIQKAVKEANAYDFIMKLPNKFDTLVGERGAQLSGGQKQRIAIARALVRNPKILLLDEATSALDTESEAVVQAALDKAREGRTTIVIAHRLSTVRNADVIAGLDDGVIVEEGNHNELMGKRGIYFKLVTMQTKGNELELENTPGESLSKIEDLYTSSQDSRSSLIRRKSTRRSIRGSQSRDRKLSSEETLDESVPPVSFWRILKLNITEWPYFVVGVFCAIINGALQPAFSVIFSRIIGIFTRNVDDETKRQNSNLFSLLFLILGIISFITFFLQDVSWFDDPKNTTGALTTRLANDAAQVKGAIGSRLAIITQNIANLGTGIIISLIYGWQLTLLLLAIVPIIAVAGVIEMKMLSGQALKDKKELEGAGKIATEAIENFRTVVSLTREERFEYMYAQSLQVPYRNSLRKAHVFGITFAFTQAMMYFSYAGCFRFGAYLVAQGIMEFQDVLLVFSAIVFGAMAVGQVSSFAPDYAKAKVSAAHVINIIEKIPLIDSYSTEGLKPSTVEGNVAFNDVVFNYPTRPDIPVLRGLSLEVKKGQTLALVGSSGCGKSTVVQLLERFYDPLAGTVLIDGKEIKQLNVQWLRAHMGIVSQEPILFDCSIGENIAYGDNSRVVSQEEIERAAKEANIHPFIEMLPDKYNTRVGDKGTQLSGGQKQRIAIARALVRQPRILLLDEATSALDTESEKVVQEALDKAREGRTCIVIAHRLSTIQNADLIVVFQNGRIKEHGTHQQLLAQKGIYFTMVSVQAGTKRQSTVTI

Compound	EC50 [1, 4] [nM]	MPA: ability of the compound to promote polymerization of tubulin, expressed as percentage of the activity of paclitaxel [2, 5]	further results
PXL-10Ca-aniline [Compound 9]	10 to 500	b (b = 30-70%)	–
PXL-10Ca-Gly(tBu) [Compound 14]	10 to 500	b (b = 30-70%)	Rhodamine 123 uptake [3]: b (b = >0.25)
PXL-10Ca-Gly-N(Me)2 [Compound 15]	10 to 500	–	Rhodamine 123 uptake [3]: a (a < 0.25)
PXL-10Ca-H-Lys-OH [Compound 20]	> 500	a (a > 70%)	–
CC(=O)OC12COC1CC(O)C1(C)C(=O)C(OC(=O)N(C)CC(=O)O)C3=C(C)C(OC(=O)C(O)C(NC(=O)c4ccccc4)c4ccccc4)CC(O)(C(OC(=O)c4ccccc4)C21)C3(C)C (centres unmarked) [Compound 13, PXL-10Ca-Sar-OH]	> 500	–	Rhodamine 123 uptake [3]: b (b = >0.25)
PXL-10Ca-Ph-acetic acid [Compound 10]	> 500	a (a > 70%)	–
PXL-10Ca-N-methyl-N-butylamine [Compound 22]	< 10	a (a > 70%)	–
CC(=O)OC12COC1CC(O)C1(C)C(=O)C(OC(=O)NCC(=O)O)C3=C(C)C(OC(=O)C(O)C(NC(=O)c4ccccc4)c4ccccc4)CC(O)(C(OC(=O)c4ccccc4)C21)C3(C)C (centres unmarked) [Compound 12, PXL-10Ca-Gly-OH]	–	–	EC50 [1]: > 500 nM; Rhodamine 123 uptake [3]: a (a < 0.25)
PXL-10Ca-Glucosamine [Compound 5]	> 500	a (a > 70%)	–
PXL-10Ca-p-NO2-aniline [Compound 18]	10 to 500	b (b = 30-70%)	–
CC(=O)O[C@H]1C(=O)[C@@]2(C)[C@H]([C@H](OC(=O)c3ccccc3)[C@]3(O)C[C@H](OC(=O)[C@H](O)[C@@H](NC(=O)c4ccccc4)c4ccccc4)C(C)=C1C3(C)C)[C@]1(OC(C)=O)CO[C@@H]1C[C@@H]2O [PXL, Paclitaxel, reference compound]	–	–	effect on rhodamine uptake (in words) [3]: higher rhodamine uptake; Rhodamine 123 uptake [3]: b (b = >0.25)
PXL-10Ca-Z-Lys-OH [Compound 19]	> 500	a (a > 70%)	–
PXL-10Ca-piperidine [Compound 6]	< 10	b (b = 30-70%)	–
PXL-10Ca-PEG(29)-VBL [Compound 28]	10 to 500	–	MPA: ability of the compound to promote polymerization of tubulin, expressed as percentage of the activity of paclitaxel ([2]; relative to paclitaxel, given as number): 40%
COC(=O)C(C)NC(=O)OC1C(=O)C2(C)C(O)CC3OCC3(OC(C)=O)C2C(OC(=O)c2ccccc2)C2(O)CC(OC(=O)C(O)C(NC(=O)c3ccccc3)c3ccccc3)C(C)=C1C2(C)C (centres unmarked) [Compound 39, PXL-10Ca-alanine-Me-ester]	–	–	EC50 [1]: < 10 nM
PXL-10Ca-di-Et-amine [Compound 23]	10 to 500	c (c < 40%)	–
PXL-10CaSpermine [Compound 16]	–	a (a > 70%)	EC50 [1]: > 500 nM
CC(=O)OC12COC1CC(O)C1(C)C(=O)C(OC(=O)n3cnc4ccccc43)C3=C(C)C(OC(=O)C(O)C(NC(=O)c4ccccc4)c4ccccc4)CC(O)(C(OC(=O)c4ccccc4)C21)C3(C)C (centres unmarked) [Compound 8, 10-O-deacetyl-paclitaxel-10-O-carbonyl-N-benzimidazole]	–	b (b = 30-70%)	–
PXL-10Ca-Glu	10 to 500	–	–
PXL-10Ca-PEG(14)-COOH [Compound 25]	> 500	a (a > 70%)	–
CC(=O)OC12COC1CC(O)C1(C)C(=O)C(OC(=O)N3CCOCC3)C3=C(C)C(OC(=O)C(O)C(NC(=O)c4ccccc4)c4ccccc4)CC(O)(C(OC(=O)c4ccccc4)C21)C3(C)C (centres unmarked) [Compound 7, PXL-10Ca-Morpholine]	–	–	EC50 [1]: 10 to 500 nM; MPA: ability of the compound to promote polymerization of tubulin, expressed as percentage of the activity of paclitaxel [2]: a (key: a > 70%; b = 30-70%; c < 40%)
PXL-10Ca-PEG6000-10Ca-PXL [Compound 29]	–	a (a > 70%)	–
